According to patent US20090220614A1, “Thermo-Responsive Block Co-Polymers, and Use Thereof” (The Trustees of the University of Pennsylvania, priority 2005, published 2009):

Test: Release of doxorubicin from OPA215 vesicles, dialysis cassette in PBS, 485 nm absorption
Assay type: physicochemical
Settings: 37° C., within 2 hours
Protocol: The Dox-loaded vesicles were centrifuged at 40° C. to remove excess free Dox and resuspended into a 0.320 osM PBS solution at ° C. Then, 3 ml of the aforementioned solution was injected into a dialysis cassette (molecular weight cut-off 3000 g mol^−1), and dialyzed against the PBS solution at 37° C. for 6 hours to ensure complete removal of any free Dox outside of the vesicles. After the initial aliquot was taken, the cassette was immersed in a 300 ml PBS solution at 37° and 27° C., respectively, for monitoring the 485 nm absorption peak of Dox using UV-vis spectrometry. At time intervals, a 3 ml aliquot of the PBS solution was sampled from the external solution of the dialysis cassette.
To study thermally triggered release of Dox from the OPA215 vesicles in PBS solutions, vesicles and control samples were entrapped in dialysis cassettes and sampled in external PBS solutions for the 485 nm absorption peak of Dox at different time intervals (FIG. 9).

- loss of Dox during dialysis: > 70%
Compound: COc1cccc2c1C(=O)c1c(O)c3c(c(O)c1C2=O)C[C@@](O)(C(=O)CO)C[C@@H]3O[C@H]1C[C@H](N)[C@H](O)[C@H](C)O1 [free Dox, Doxorubicin]
